Experimental data reported in patent US20070185172A1, “Organic compounds” (priority 2004, published 2007).

Assays:
[1] = system: TNF-alpha synthesis and release in human macrophage cell line U937; experiment: Inhibition of TNF-alpha synthesis and release in LPS-stimulated differentiated U937 cells; format: cell-based; settings: U-937, PMA-differentiated U937 cells, 10 ng/ml LPS, 24 hours, TNFα by sandwich ELISA
Method: Inhibition of TNF-alpha synthesis and release may be measured by the following assay:
Human macrophage cell line U937 is obtained from American Type Culture Collection (Rockville Md.) and cultured in RPMI 1640 (Gibco UK) supplemented with 10% FCS (Gibco UK). Cell density is adjusted to 4×10^5 cells/ml and the cells are differentiated by adding phorbal myristate acetate (PMA, 20 ng/ml) for 4 hours. The PMA is removed by washing and the adherent cells are incubated for a further 48 hours at 37° C. in a humidified incubator with 5% CO2. Differentiated U937 cells are removed using cell dissociation buffer (Gibco UK) and the cell density is adjusted to 1×10^6 cells/ml. 100 μl of the cell suspension is placed in 96 well culture plates and 50 μl of either medium or compound at the appropriate concentration in dimethylsulfoxide are added. After a preincubation of 20 minutes at 37° C., the cells are stimulated with 10 ng/ml lipopolysaccharide (LPS, Sigma) and the supernatants are harvested after 24 hours of incubation at 37° C. in a humidified incubator with 5% CO2. Concentration of TNFα in the supernatants is determined by sandwich ELISA using two monoclonal antibodies recognising different epitopes of the cytokine (Pharmingen UK). Binding of the second antibody is analysed by stepwise incubation with streptavidin alkaline phosphatase conjugate (Sigma UK) and 4-nitrophenylphosphate disodium salt. Optical density is measured at 405 nm and cytokine concentration calculated based on results from serial diluations of standard recombinant TNFα. Curves are fitted and IC50 values calculated using Origin™ software.

Recombinant human GR = biological target: T1, Recombinant human GR (Homo sapiens, UniProt P04150); experiment: Glucocorticoid receptor binding, fluorescence polarisation with Fluormone-GS1; settings: Fluormone-GS1 ligand, 1 hr at room temperature, Ki calculated from IC50 using the Cheng-Prussoff equation
T1 construct: purchased Panvera (Madison, Wis., USA); host or cells: baculovirus-infected insect Sf-9 cells
T1 sequence (P04150 1-777): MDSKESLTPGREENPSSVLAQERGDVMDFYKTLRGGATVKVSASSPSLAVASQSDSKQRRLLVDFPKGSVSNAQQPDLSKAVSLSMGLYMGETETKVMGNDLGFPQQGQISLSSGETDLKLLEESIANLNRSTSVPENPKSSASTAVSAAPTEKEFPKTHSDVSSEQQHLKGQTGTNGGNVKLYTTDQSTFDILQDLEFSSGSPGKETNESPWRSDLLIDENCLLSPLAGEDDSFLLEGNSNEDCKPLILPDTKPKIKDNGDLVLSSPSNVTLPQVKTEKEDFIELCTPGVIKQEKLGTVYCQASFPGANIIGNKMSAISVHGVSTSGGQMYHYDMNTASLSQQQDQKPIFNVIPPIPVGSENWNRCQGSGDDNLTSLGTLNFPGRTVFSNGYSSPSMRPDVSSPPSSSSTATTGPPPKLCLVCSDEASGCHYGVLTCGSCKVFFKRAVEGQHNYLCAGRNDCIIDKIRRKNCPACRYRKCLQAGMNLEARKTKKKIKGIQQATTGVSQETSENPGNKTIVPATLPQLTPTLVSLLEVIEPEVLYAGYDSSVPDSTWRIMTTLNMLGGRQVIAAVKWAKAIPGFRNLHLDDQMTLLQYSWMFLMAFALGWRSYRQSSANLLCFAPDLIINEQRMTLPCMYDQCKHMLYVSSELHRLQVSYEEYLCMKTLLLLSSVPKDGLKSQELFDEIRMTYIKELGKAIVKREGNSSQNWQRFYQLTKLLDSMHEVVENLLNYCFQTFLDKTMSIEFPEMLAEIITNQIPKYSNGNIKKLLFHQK
Method: Binding to the glucocorticoid receptor may be measured in the following assay:
Recombinant human GR expressed in baculovirus-infected insect Sf-9 cells is obtained from Panvera (Madison, Wis., USA), as is GR assay buffer and the proprietary fluorescent ligand Fluormone™-GS1 (200 nM methanol solution). The assay is conducted in 384 well plates by sequential addition of a serially diluted dimethylsulfoxide solution of test compound in water (2 μl), Fluormone™-GS1 (2.2 nM in GR assay buffer, 10 μl) and GR solution (8.8 nM in GR assay buffer, 10 μl). The assay is incubated in the dark at room temperature for 1 hr, prior to fluorescence polarisation measurement using an analyst multiwell instrument with 485 nm excitation and 530 nm emission filters. The concentration of test compound resulting in half-maximum shift in polarisation gives the IC50. Curves are fitted using Origin™ software and Ki values were calculated using the Cheng-Prussoff equation. Compounds of Examples 1, 2, 3, and 4 have Ki values of 0.5, 1.4, 0.4 and 0.2 nM respectively in this assay.

In the case of `CCCN1C[C@@H]2CC3C4CCC5=CC(=O)C=C[C@]5(C)C4[C@@H](O)C[C@]3(C)[C@]2(C(=O)CO)O1` (stereo partly drawn) [Example 1, (4aR,5S,6aS,6bR,9aS)-5-Hydroxy-6b-(2-hydroxy-acetyl)-4a,6a-dimethyl-8-propyl-4a,4b,5,6,6a,6b,8,9,9a,10,10a,10b,11,12-tetradecahydro-7-oxa-8-pentaleno[2,1-a]phenanthren-2-one], the IC50 [1] is reported as 1.16 nM and the Ki (Recombinant human GR) is reported as 0.5 nM.

In the case of `CCCCN1C[C@@H]2CC3C4CCC5=CC(=O)C=C[C@]5(C)C4[C@@H](O)C[C@]3(C)[C@]2(C(=O)CO)O1` (stereo partly drawn) [Example 3, (4aR,5S,6aS,6bR,9aS)-8-Butyl-5-hydroxy-6b-(2-hydroxy-acetyl)-4a,6a-dimethyl-4a,4b,5,6,6a,6b,8,9,9a,10,10a,10b,11,12-tetradecahydro-7-oxa-8-aza-pentaleno[2,1-a]phenanthren-2-one], the IC50 [1] is reported as 0.89 nM and the Ki (Recombinant human GR) is reported as 0.4 nM.

`CN1C[C@@H]2CC3C4CCC5=CC(=O)C=C[C@]5(C)C4[C@@H](O)C[C@]3(C)[C@]2(C(=O)CO)O1` (stereo partly drawn) [Example 2, (4aR,5S,6aS,6bR,9aS)-5-Hydroxy-6b-(2-hydroxy-acetyl)-4a,6a,8-trimethyl-4a,4b,5,6,6a,6b, 8,9,9a,10a,10b,11,12-tetradecahydro-7-oxa-8-aza-pentaleno[2,1-a]phenanthren-2-one] showed an IC50 [1] of 4.95 nM and a Ki (Recombinant human GR) of 1.4 nM.

With `C[C@]12C=CC(=O)C=C1CCC1C2[C@@H](O)C[C@@]2(C)C1C[C@H]1CN(C3CCCCC3)O[C@]12C(=O)CO` (stereo partly drawn) [Example 4, (4aR,5S,6aS,6bR,9aS)-8-Cyclohexyl-5-hydroxy-6b-(2-hydroxy-acetyl)-4a,6a-dimethyl-4a,4b, 5,6,6a,6b,8,9,9a,10,10a,10b,11,12-tetradecahydro-7-oxa-8-aza-pentaleno[2,1-a]-phenan-thren-2-one] the IC50 [1] was 3.57 nM and the Ki (Recombinant human GR) was 0.2 nM.
